Experimental data: US9345793B2, “Compounds for binding to the platelet specific glycoprotein IIB/IIIA and their use for imaging of thrombi” (PIRAMAL IMAGING SA, priority 2011, dated 2016)
Several values for one entry are separate records, joined by “and”; a condition that tells them apart may be missing. Equal entries are not always repeated. Entries after “also recorded” stand apart in the source; their conditions may differ.

Tests used:
[1] = Blood clearance in a cynomolgus monkey (PET and gamma counter); assay type: in vivo
Procedure: Blood kinetics of the compound described in example 40 in cynomolgus monkey. PET-imaging was performed continuously from shortly before up to 60 minutes post injection. Venous blood samples were taken at 3, 10, 30 and 60 minutes p.i. and were measured in a gamma-counter (Automatic Gamma Counter Wizard^2 3, Perkin Elmer) and expressed as cpm/mg blood. Additionally, the blood-concentration of the compound was measured from the PET-Image over the whole imaging period and expressed as % ID/g.
The blood clearance of the compound described in example 40 has been determined in a cynomolgus monkey. A female cynomolgus monkey was anesthetized with a mixture of Xylazin (Rompun®, Bayer HealthCare, Leverkusen, Germany), 0.12 mL/kg bodyweight and Ketamine (Ketavet®, Pfizer) 0.12 mL/kg bodyweight i.m. The monkey was placed inside the PET-scanner (Inveon PET/CT, Siemens Medical, Erlangen) and 25 MBq of the compound has been injected i.v. while PET-imaging was performed continuously from shortly before up to 60 minutes post injection. Venous blood samples were taken at 3, 10, 30 and 60 minutes p.i. and were measured in a gamma-counter (Automatic Gamma Counter Wizard^2 3, Perkin Elmer). Additionally, the blood-concentration of the compound was measured from the PET-Image over the whole imaging period (FIG. 4).

[2] = tested on: arterial and venous thrombi; experiment: Thrombus PET imaging and in vivo clot-to-blood ratio in cynomolgus monkeys; set-up: species or system cynomolgus monkey
Procedure: The ability of the compound described in example 40 for the imaging of thrombi was investigated in a PET-study with cynomolgus monkeys (female, 2.8-3.2 kg).
The first monkey was anesthetized with a mixture of Xylazin (Rompun®, Bayer HealthCare, Leverkusen, Germany), 0.12 mL/Kg and Ketamine (Ketavet®, Pfizer) 0.12 mL/Kg b.w. i.m. and additionally analgesized by an i.m. injection of 6 μg Buprenorphine per kg. While the investigation, small amounts of Ketamine have been injected i.m. if required. The left common carotid artery was exposed surgically and a polyethylene-tube ([…] Polyethylene Tubing, Clay Adams, PE50), which was roughened previously by sandpaper (600—CAMI Grit designation), was inserted into the vessel, advanced into the descending aorta and was left there for 30 minutes to allow for the development of a thrombus on the rough surface of the tube. Meanwhile, the monkey was placed inside the PET-scanner (Inveon PET/CT, Siemens Medical, Erlangen). […] The thickness of this layer was far below 1 mm (see also removed thrombus of Monkey 2, FIG. 7) and therewith also far below the resolution of the image, which is approximately 1 mm. This also means, that even slightest thrombi, even if their size is far less than the resolution of the imaging-device, can be visualized due to the massive accumulation of compound on the platelets of the thrombi. At the end of the experiment the tube was removed carefully from the vessel before it was weighted and measured in a gamma counter (Automatic Gamma Counter Wizard^2 3, Perkin Elmer). Then the thrombus together with the tube was incubated in Plasmin-solution (Plasmin from Human Plasma, Sigma Aldrich, Plasmin-stock-solution: 500 μg Plasmin in 500 μL Tris-buffer (150 μM, pH 7.8), 20 μL Plasmin-stock-solution to 230 μL saline solution 0.9%) for 48 hours to separate the platelets from the tube and to determine the netto weight of the thrombus. Finally the activity of the compound in blood and thrombus as well as the ratio between the two was determined (cpm/weight [mg]).
The experiment was repeated with the same compound in another monkey with a slightly different preparation of the thrombogenic tube: This tube was roughened at only two short sections with a gap in between. Apart from that, the experimental design including the determination of the in vivo clot-to-blood ratio was as described above for monkey 1.
The experiment was repeated with the same compound in another monkey, but with the reduced dose of 15 MBq for the whole animal. In addition to the arterial catheter, this animal also received a venous catheter, also made of PE50-catheter-tube and roughened at some parts with gaps in between as described above. […]
The in vivo clot-to-blood ratio was determined from 5 thrombi out of the above described monkey experiments. As already mentioned above the thrombi had been removed from the vessels after imaging and had been weighted and measured in a gamma-counter (Automatic Gamma Counter Wizard^2 3, Perkin Elmer) together with blood samples taken from the animal. After incubation of the thrombi in Plasmin (Plasmin from Human Plasma, Sigma Aldrich, Plasmin-stock-solution: 500 μg Plasmin in 500 μL Tris-buffer (150 μM, pH 7.8), 20 μL Plasmin-stock-solution to 230 μL saline solution 0.9%) and removal of the thrombi from the catheter tubes, the netto weight of the thrombi was calculated and the concentration of the compound in thrombus (clot) and blood, as well as the ratio between the two was calculated.

human thrombi = experiment: Ex vivo blood flow model: binding to human thrombi, incl. competition with cold compound; conditions: ± SEM
Excerpt: The binding of compounds to thrombi was further investigated in an ex vivo blood flow model similar to that described in “Wakhloo, A. K. et al. Thrombus and stroke 2008, in vitro models 57-66” but modified with regard to thrombus development. Briefly, an open handmade tube-set consisting of tygon-tubes (Tygon R-1000, part N^O AAU00007: I.D. 3.2 mm, O.D. 6.4 mm, Saint Gobain Performance Plastics North America), intermediate tubes (Intrafix® Infusion set, B. Braun, Melsungen, Germany) an open reservoir (10 mL Combitip, Eppendorf) and a chamber made of a piece of polyethylene-Tube, ([…] Polyethylene Tubing, Clay Adams, PE160, length: 6.5 cm) containing a loop of a roughened thread (fishing line: Okuma UltraMax whitefish, diameter: 0.14 mm, length: 5 cm; sandpaper: CAMI Grit designation: 600, CP918a, VSM) was used for thrombus formation. The connection between the intermediate tube and the thrombus chamber was made by trimmed tips (epTIPS, 200 μL, Eppendorff, Hamburg/Germany). The Reservoir and the thrombus chamber were fixed by clamps and stands. A peristaltic-pump (Minipuls 3, Gilson, Middelton/USA) was used to pump the blood around thereby adjusting the flow in the middle of the thrombus chamber to 70-90 cm per second, which was monitored by ultrasound Doppler measurement (Vevo 770 High-Resolution In Vivo Micro-Imaging System, VisualSonics, TorontoOntario, Canada; Scanhead: RMV 704, 40 MHz). The volume of the entire tube-set was 7.5 or 15 mL.
For each experiment fresh blood was taken from a volunteer using 10 mL citrate-tubes (Sarstedt S-Monovette 02.1067.001, 10 mL, Citrate 3.13%) and immediately laid into the turning-device of an incubator at a temperature of 37° C. (Heraeus miniTherm CTT with integrated rotation- and turning device, turning speed: 19 rotations per minute, Heraeus Instruments GmbH, Hanau/Germany). As needed, two tubes were taken out of the turning-device and 15 mL were transferred to a 20 mL Syringe (Omnifix®, B. Braun, Melsungen/Germany) and gently mixed with 0.75 mL CaCl2-Solution before the peristaltic pump was started and the whole content of the syringe was transferred into the reservoir of the tube-set via a cell strainer (BD Falcon™ cell strain, 40 μm, BD, Franklin Lakes, N.J. USA). After 7 minutes 1 MBq or 0.5 MBq (15 mL or 7.5 mL) of the compound was added to the reservoir by means of a pipette, thereby mixing the content gently with the tip of the pipette. The blood was left circulating for another 3 minutes. Then, the pump was stopped, aliquots were taken from the blood and the thrombus together with the roughened thread was removed from the thrombus-chamber before both was weighted and measured in a gamma counter (Automatic Gamma Counter Wizard^2 3, Perkin Elmer). Then the thrombus together with the thread was incubated in Plasmin-solution (Plasmin from Human Plasma, Sigma Aldrich, stock-solution: 500 μg in 500 μL 150 μM Tris-buffer (pH 7.8), 20 μL stock-solution to 230 μL saline solution 0.9%) for 48 hours to separate the platelets from the thread and to determine the netto weight of the thrombus. Finally the activity of the compound in blood and thrombus as well as the ratio between both was determined (cpm/weight [mg]).
To verify the specificity of the compound, a competition experiment was conducted in which the cold compound was added to the reservoir together with the hot compound. The final plasma concentration of the cold compound was 2.8 μM.

## O=C(O)C[C@H](NC(=O)[C@@H]1CCCN(C(=O)CCC2CCNCC2)C1)c1cncc(OCC[18F])c1 [Example 40, (3S)-3-[5-(2-[^18F]Fluoroethoxy)pyridin-3-yl]-3-[({(3R)-1-[3-(piperidin-4-yl)propanoyl]piperidin-3-yl}carbonyl)amino]propanoic acid]
[1]; 25 MBq i.v., up to 60 minutes p.i.
  blood clearance: rapidly cleared from the blood; also recorded: rapidly eliminated from the blood
[1]; PET
  contrast in the brain: completely free of contrast
  signal in other tissue: only marginal signal visible in any other tissue
[2]; 60 minutes were shown
  retention within the thrombus: almost completely remains within the thrombus
[2]; blood sample of the animal, Cynomolgus monkey
  Blood: 90 cpm/mg and 130 cpm/mg and 100 cpm/mg
[2]; mean of 5 thrombi, sd 52
  Clot/Blood mean (in vivo clot-to-blood ratio): 126+/−52 and 126
[2]; monkeys, PET
  background in surrounding tissue or organ: almost no background in any surrounding tissue or organ
[2]; monkeys, PET, 15-25 MBq i.v.
  accumulation in venous and arterial thrombi: surprisingly high accumulation
Human thrombi; 3 minutes post-injection of 18F-labeled compound
  in vitro clot-to-blood ratio: 71 ± 4 (n = 3)
Human thrombi; 3 minutes post-injection of 18F-labeled compound, without cold compound
  Accumulation Thrombus: 202 ± 11 (n = 3) 10^3 cpm/mg
Human thrombi; cold compound added with hot compound, final plasma concentration 2.8 μM, 3 minutes
  Thrombus competition: 8 ± 1 (n = 3) 10^3 cpm/mg
